According to the supplement of paper PMC13380429:

Columns and labels:
Vero E6 [1] = assay: cell viability relative to DMSO; higher = less toxic; settings: 72 h
HepG2 [2] = assay: as above; settings: 72 h
Caco-2 [3] = assay: as above; settings: 72 h
Calu-3 [4] = assay: as above; settings: 72 h
U2OS [5] = assay: as above; settings: 72 h
[6] = test system: A549-ACE2 infected with SARS-CoV-2; assay: SARS-CoV-2 infection rate relative to DMSO; higher = more infection; settings: 24 h
[7] = test system: A549-ACE2 infected with SARS-CoV-2; assay: morphology score (similarity to uninfected cells); higher = more like uninfected cells; settings: 24 h
A549-ACE2 [8] = assay: phospholipidosis EC50; higher = less potent phospholipidosis inducer
Vero E6 [9] = assay: drug sensitivity score (DSS) for viability; higher = more toxic; extreme values may be limits of the assay; settings: 72 h
HepG2 [10] = assay: as above; settings: 72 h
Caco-2 [11] = assay: as above; settings: 72 h
Calu-3 [12] = assay: as above; settings: 72 h
U2OS [13] = assay: as above; settings: 72 h
Vero E6 [14] = assay: relative viability EC50 (midpoint between 100% and the lowest measured viability); higher = less toxic; settings: 72 h
HepG2 [15] = assay: as above; settings: 72 h
Caco-2 [16] = assay: as above; settings: 72 h
U2OS [17] = assay: as above; settings: 72 h
A549-ACE2 [18] = assay: drug-induced phospholipidosis relative to tamoxifen; higher = more phospholipidosis
[19] = test system: A549-ACE2 infected with SARS-CoV-2; assay: cell count relative to DMSO; higher = less toxic; settings: 24 h

C[C@@H]1CN(CCCn2c3ccccc3c3ccccc32)C[C@H](C)N1 [rimcazole]
Settings | SARS-CoV-2 infection rate [%] | cell count [%] | cell viability [%] | morphology score | phospholipidosis EC50 [µM]
A549-ACE2 [8], 24 h | – | – | – | – | 2.9
A549-ACE2 [8], 48 h | – | – | – | – | 5.12
A549-ACE2 [8], 72 h | – | – | – | – | 5.72
Caco-2 [3], 1 nM | – | – | 96 | – | –
Caco-2 [3], 10 nM | – | – | 99.5 | – | –
Caco-2 [3], 100 nM | – | – | 93.4 | – | –
Caco-2 [3], 1000 nM | – | – | 90.8 | – | –
Caco-2 [3], 10000 nM | – | – | 87 | – | –
Calu-3 [4], 1 nM | – | – | 103 | – | –
Calu-3 [4], 10 nM | – | – | 88.6 | – | –
Calu-3 [4], 100 nM | – | – | 100 | – | –
Calu-3 [4], 1000 nM | – | – | 90.2 | – | –
Calu-3 [4], 10000 nM | – | – | 60.1 | – | –
HepG2 [2], 1 nM | – | – | 106 | – | –
HepG2 [2], 10 nM | – | – | 105 | – | –
HepG2 [2], 100 nM | – | – | 98 | – | –
HepG2 [2], 1000 nM | – | – | 106 | – | –
HepG2 [2], 10000 nM | – | – | 76.4 | – | –
U2OS [5], 1 nM | – | – | 100 | – | –
U2OS [5], 10 nM | – | – | 98.1 | – | –
U2OS [5], 100 nM | – | – | 105 | – | –
U2OS [5], 1000 nM | – | – | 96.8 | – | –
U2OS [5], 10000 nM | – | – | 96.4 | – | –
Vero E6 [1], 1 nM | – | – | 97.9 | – | –
Vero E6 [1], 10 nM | – | – | 97.9 | – | –
Vero E6 [1], 100 nM | – | – | 94.4 | – | –
Vero E6 [1], 1000 nM | – | – | 98.2 | – | –
Vero E6 [1], 10000 nM | – | – | 81.7 | – | –
[6], 0.3 µM | 104 | – | – | – | –
[6], 3 µM | 43 | – | – | – | –
[6], 10 µM | 13 | – | – | – | –
[6], 30 µM | 41 | – | – | – | –
[7], 0.3 µM | – | – | – | 0.08 | –
[7], 3 µM | – | – | – | 0.76 | –
[7], 10 µM | – | – | – | 0.81 | –
[7], 30 µM | – | – | – | 0.11 | –
[19], 0.3 µM | – | 108 | – | – | –
[19], 3 µM | – | 122 | – | – | –
[19], 10 µM | – | 117 | – | – | –
[19], 30 µM | – | 101 | – | – | –

Settings | drug sensitivity score | relative viability EC50 [µM]
Caco-2 [11] | 0.2 | –
Caco-2 [16] | – | > 10
Calu-3 [12] | 3.5 | –
HepG2 [10] | 0.6 | –
HepG2 [15] | – | > 10
U2OS [13] | 0 | –
U2OS [17] | – | > 10
Vero E6 [9] | 0.7 | –
Vero E6 [14] | – | > 10

drug-induced phospholipidosis [%], A549-ACE2 [18]
Settings | 0.3 µM | 0.833333 µM | 3.33333 µM | 6.66667 µM | 10 µM | 30 µM
24 h | 4.49 | 10.3 | 68.5 | 99.3 | 102 | 118
48 h | 7.19 | 8.94 | 52.5 | 90.8 | 105 | 135
72 h | 8.99 | 8.76 | 45.8 | 87 | 106 | 137

Fc1cc(-c2cccc3ncc(-c4cnn(C5CCNCC5)c4)nc23)cc(F)c1CN1CCOCC1 [NVP-BSK805]
Settings | SARS-CoV-2 infection rate [%] | cell count [%] | cell viability [%] | morphology score | phospholipidosis EC50 [µM]
A549-ACE2 [8], 24 h | – | – | – | – | 3.94
A549-ACE2 [8], 48 h | – | – | – | – | 9.74
A549-ACE2 [8], 72 h | – | – | – | – | 4.49
Caco-2 [3], 1 nM | – | – | 99.5 | – | –
Caco-2 [3], 10 nM | – | – | 98.8 | – | –
Caco-2 [3], 100 nM | – | – | 104 | – | –
Caco-2 [3], 1000 nM | – | – | 105 | – | –
Caco-2 [3], 10000 nM | – | – | 39.8 | – | –
Calu-3 [4], 1 nM | – | – | 99.5 | – | –
Calu-3 [4], 10 nM | – | – | 97.2 | – | –
Calu-3 [4], 100 nM | – | – | 95 | – | –
Calu-3 [4], 1000 nM | – | – | 104 | – | –
Calu-3 [4], 10000 nM | – | – | 69.6 | – | –
HepG2 [2], 1 nM | – | – | 106 | – | –
HepG2 [2], 10 nM | – | – | 110 | – | –
HepG2 [2], 100 nM | – | – | 96.2 | – | –
HepG2 [2], 1000 nM | – | – | 93.1 | – | –
HepG2 [2], 10000 nM | – | – | 35.8 | – | –
U2OS [5], 1 nM | – | – | 101 | – | –
U2OS [5], 10 nM | – | – | 101 | – | –
U2OS [5], 100 nM | – | – | 97.6 | – | –
U2OS [5], 1000 nM | – | – | 97.2 | – | –
U2OS [5], 10000 nM | – | – | 22.9 | – | –
Vero E6 [1], 1 nM | – | – | 97.9 | – | –
Vero E6 [1], 10 nM | – | – | 102 | – | –
Vero E6 [1], 100 nM | – | – | 100 | – | –
Vero E6 [1], 1000 nM | – | – | 99.9 | – | –
Vero E6 [1], 10000 nM | – | – | 48.4 | – | –
[6], 0.1 µM | 96 | – | – | – | –
[6], 0.3 µM | 100 | – | – | – | –
[6], 1 µM | 86 | – | – | – | –
[6], 3 µM | 45 | – | – | – | –
[7], 0.1 µM | – | – | – | 0.17 | –
[7], 0.3 µM | – | – | – | 0.13 | –
[7], 1 µM | – | – | – | 0.47 | –
[7], 3 µM | – | – | – | 0.68 | –
[19], 0.1 µM | – | 102 | – | – | –
[19], 0.3 µM | – | 103 | – | – | –
[19], 1 µM | – | 105 | – | – | –
[19], 3 µM | – | 110 | – | – | –

Settings | drug sensitivity score | relative viability EC50 [µM]
Caco-2 [11] | 2.9 | –
Caco-2 [16] | – | 3.55
Calu-3 [12] | 1.1 | –
HepG2 [10] | 4.6 | –
HepG2 [15] | – | 2.28
U2OS [13] | 4.6 | –
U2OS [17] | – | 2.9
Vero E6 [9] | 2.7 | –
Vero E6 [14] | – | 3.15

drug-induced phospholipidosis [%], A549-ACE2 [18]
Settings | 0.3 µM | 0.833333 µM | 3.33333 µM | 6.66667 µM | 10 µM | 30 µM
24 h | 5.98 | 16 | 55.1 | 93.5 | 113 | 119
48 h | 2.53 | 10.2 | 51.2 | 101 | 134 | –
72 h | 5.16 | 6.57 | 55.6 | 119 | – | –
